# Source: US20150290160A1, “Spermidine/Spermine N1-Acetyltransferase Substrates As Anti-Cancer Drug Compounds” (BIOMARK TECHNOLOGIES INC., priority 2012, published 2015)
# Read-outs that look alike come from different tables or passages of the source.
# Tests used:
# [1] = tested on: U2-OS osteosarcoma cell line (negative control, SSAT non-expressing); experiment: MTT cytotoxicity assay, U2-OS; assay type: cell-based, human; settings: for IC50 values (in words): does not express SSAT
# Protocol: (§1) Each human cancer cell line was incubated with each of the four monoamine test drugs at a range of testing concentrations. Cytotoxicity expressed as half maximal inhibitory concentration or IC50 was determined based on a (dimethyl-2-thiazolyl)-2,5-diphenyl-2H-tetrazolium bromide or MTT assay. In parallel, the expression levels of SSAT in these cell lines were measured using a RT-qPCR assay.
# Cells of the ten cell lines were harvested from their established adherent cultures with trypsin EDTA, pelleted by centrifugation, and resuspended in the appropriate medium to yield a suspension of cells for each cell line.
# Each of the monoamine test drugs (amantadine, rimantadine, dopamine and L-DOPA) and the positive control (spermidine) was accurately weighed, dissolved and further diluted with sterile water into a series of solutions at 100× of their target incubation concentrations. The target incubation concentrations for amantadine, rimantadine, and dopamine were 0.03, 0.1, 0.3, 1, 3, 10, 30, 100, 300 and 1000 μM. The target incubation concentrations for L-DOPA and the positive control, spermidine, were 0.1, 0.3, 1, 3, 10, 30, 100, 300 and 1000 μM.
# Incubation was performed in triplicate at each drug concentration for each cell line tested. […]
# (§2) After three days of incubation with substrates, an aliquot of 5 mg/mL MTT was added to each well and then incubated for 1 to 3 hours. […] An aliquot from each well was measured for absorbance at 550 nm or 555 nm on a 96-well flat bottom plate with a microplate reader and DMSO for background absorbance correction.
# (§3) Cytotoxicity was determined based on treating each cell line with each of the test drugs over a range of concentrations. Following a three day incubation period cytotoxicity was measured by an MTT assay. IC50 values were deduced based on plots of cytotoxicity level expressed as percentage inhibition over the testing concentrations as shown in FIGS. 5 to 14. In parallel to each drug treatment, each cell line was also treated with spermidine as a positive control and the IC50 value for spermidine was determined for comparison.
# T-47D = experiment: MTT cytotoxicity assay, T-47D
# Protocol: as §1
# (§4) Cells of the ten cell lines were harvested from their established adherent cultures with trypsin EDTA, pelleted by centrifugation, and resuspended in the appropriate medium to yield a suspension of cells for each cell line. […]
# as §2
# as §3, with “In parallel to each drug treatment, each cell line was also treated with spermidine as a positive control and the IC50 value for spermidine was determined for comparison.” left out
# LNCaP = experiment: MTT cytotoxicity assay, LNCaP
# Protocol: as §1, §4, §2
# as §3, with “In parallel to each drug treatment, each cell line was also treated with spermidine as a positive control and the IC50 value for spermidine was determined for comparison.” left out
# [2] = tested on: breast cancer cell line BT-549; experiment: cells; settings: Homo sapiens, BT-549, 72 h, read-out: IC50 (cytotoxicity)
# Protocol: as §1, §4, §2
# as §3, with “In parallel to each drug treatment, each cell line was also treated with spermidine as a positive control and the IC50 value for spermidine was determined for comparison.” left out
# NCI-H23 (lung cancer) = experiment: MTT cytotoxicity assay, NCI-H23; assay type: cell-based; settings: Homo sapiens, 72 h, NCI-H23, three day incubation
# Protocol: as §1, §4, §2
# as §3, with “In parallel to each drug treatment, each cell line was also treated with spermidine as a positive control and the IC50 value for spermidine was determined for comparison.” left out
# [3] = tested on: SSAT non-expressing cell lines (U2-OS and HeLa); experiment: Percent confluency during incubation with spermidine, SSAT non-expressing cell lines; assay type: cell-based, human; settings: spermidine from 22 μM to 550 μM, compared among U2-OS, Malme-3M, PC-3, HEK293
# [4] = tested on: human cancer cell lines (A549, H322, NCI-H23, MCF-7, T-47D, BT-549, LNCaP, PC-3, Du-145, U2-OS); experiment: MTT cytotoxicity assay, across all cell lines evaluated; assay type: cell-based; settings: 72 h, across all the cell lines evaluated, three day incubation, read-out: IC50 (cytotoxicity), range across cell lines
# Source text: Three cell lines from each of lung, breast and prostate cancers have been selected based on literature SSAT expression data and used for potential cytotoxicity screening in the MTT assay. The SSAT non-expressing human osteosarcoma cell line U2-OS was used as the negative control cell line.
# [5] = tested on: SSAT over-expressing cell lines (Malme-M3 and PC-3); experiment: Percent confluency during incubation with spermidine, SSAT over-expressing cell lines; assay type: cell-based, human; settings: spermidine from 22 μM to 550 μM; compared among U2-OS, HeLa, Malme-3M, PC-3, HEK293
smiles,measurement,setting,value
N[C@@H](Cc1ccc(O)c(O)c1)C(=O)O [L-DOPA],IC50 values (in words),[1],low IC50 values
"NC12CC3CC(CC(C3)C1)C2 [amantadine, Amantadine]",cytotoxicity (in words),"T-47D; T-47D, over-expresses SSAT (>2 fold change)",high cytotoxicity
same,cytotoxicity (in words),"LNCaP; LNCaP, over-expresses SSAT (>5-fold change)",high cytotoxicity
same,IC50,[2],1160 µM
same,IC50,NCI-H23 (lung cancer),1600 µM
"NCCc1ccc(O)c(O)c1 [dopamine, Dopamine]",IC50,"[1]; Homo sapiens, U2OS, 72 h, three day incubation, MTT",34.1 µM
same,IC50 values (in words),[1],low IC50 values
same,IC50,[2],52 µM
"CC(N)C12CC3CC(CC(C3)C1)C2 (stereo not shown) [rimantadine, Rimantadine]",cytotoxicity (in words),T-47D,high cytotoxicity
same,cytotoxicity (in words),LNCaP,high cytotoxicity
"NCCCCNCCCN [spermidine, Spermidine]","relative cell viability, expressed as percent confluency",[3],highest
same,IC50,[4],3.72 to 32.7 µM
same,"relative cell viability, expressed as percent confluency",[5],lowest
